Assay results from PubChem BioAssay AID2060900 (Molecular Pharmacology Branch, DTP, NCI, 2025).
Each block holds one compound with its values, some of them ahead of it.

Tested on: 521955-158-R2-J5-PDC complex spheroids, viability
Assay: Anticancer human tumor 521955-158-R2-J5-PDC patient-derived pancreatic carcinoma cell line growth inhibition [RAS]
Conditions: for IC50: curve of first compound; for viability, T/C: stronger effect = lower value
Procedure, shortened: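 Multi-cell-type spheroids: tumor cells plus HUVEC endothelial cells and mesenchymal stem cells. RAS-pathway inhibitors were combined with targeted agents, each dosed in half-log steps down from clinical Cmax, or from 10 microM when Cmax was unknown.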

[1] = second compound 0.000949 µM, first compound 0.0316 µM
[2] = second compound 0.000949 µM, first compound 0.1 µM
[3] = second compound 0.000949 µM, first compound 0.316 µM
[4] = second compound 0.000949 µM, first compound 1 µM
[5] = second compound 0.000949 µM, first compound 3.16 µM
[6] = second compound 0.000949 µM, first compound 10 µM
[7] = second compound 0.003 µM, first compound 0.0316 µM
[8] = second compound 0.003 µM, first compound 0.1 µM
[9] = second compound 0.003 µM, first compound 0.316 µM
[10] = second compound 0.003 µM, first compound 1 µM
[11] = second compound 0.003 µM, first compound 3.16 µM
[12] = second compound 0.003 µM, first compound 10 µM
[13] = second compound 0.00949 µM, first compound 0.0316 µM
[14] = second compound 0.00949 µM, first compound 0.1 µM
[15] = second compound 0.00949 µM, first compound 0.316 µM
[16] = second compound 0.00949 µM, first compound 1 µM
[17] = second compound 0.00949 µM, first compound 3.16 µM
[18] = second compound 0.00949 µM, first compound 10 µM
[19] = second compound 0.03 µM, first compound 0.0316 µM
[20] = second compound 0.03 µM, first compound 0.1 µM
[21] = second compound 0.03 µM, first compound 0.316 µM
[22] = second compound 0.03 µM, first compound 1 µM
[23] = second compound 0.03 µM, first compound 3.16 µM
[24] = second compound 0.03 µM, first compound 10 µM
[25] = second compound 0.0949 µM, first compound 0.0316 µM
[26] = second compound 0.0949 µM, first compound 0.1 µM
[27] = second compound 0.0949 µM, first compound 0.316 µM
[28] = second compound 0.0949 µM, first compound 1 µM
[29] = second compound 0.0949 µM, first compound 3.16 µM
[30] = second compound 0.0949 µM, first compound 10 µM
[31] = second compound 0.3 µM, first compound 0.0316 µM
[32] = second compound 0.3 µM, first compound 0.1 µM
[33] = second compound 0.3 µM, first compound 0.316 µM
[34] = second compound 0.3 µM, first compound 1 µM
[35] = second compound 0.3 µM, first compound 3.16 µM
[36] = second compound 0.3 µM, first compound 10 µM
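Further: compound exposure lasted seven days before the viability read.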
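Wherever viability, T/C is given: spheroids also contain HUVEC endothelial cells and mesenchymal stem cells as stroma.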

IC50 (second compound 0.000949 µM): 31.6 nM
IC50 (second compound 0.003 µM): < 31.6 nM
IC50 (second compound 0.00949 µM): < 31.6 nM
IC50 (second compound 0.03 µM): < 31.6 nM
IC50 (second compound 0.0949 µM): < 31.6 nM
IC50 (second compound 0.3 µM): < 31.6 nM
SMILES: CC1(O)CCCC1n1c(=O)c(C(F)F)cc2cnc(NC3CCN(S(C)(=O)=O)CC3)nc21 (centres undefined) + CCn1c(-c2cc(N3CCN(C)CC3)cnc2C(C)OC)c2c3cc(ccc31)-c1csc(n1)CC(NC(=O)C1CC1C)C(=O)N1CCCC(N1)C(=O)OCC(C)(C)C2
viability, T/C [1]: 33%
viability, T/C [2]: 39%
viability, T/C [3]: 36.6%
viability, T/C [4]: 42.8%
viability, T/C [5]: 63.2%
viability, T/C [6]: 9%
viability, T/C [7]: 35.6%
viability, T/C [8]: 34.5%
viability, T/C [9]: 37.5%
viability, T/C [10]: 43.1%
viability, T/C [11]: 50.5%
viability, T/C [12]: 10.9%
viability, T/C [13]: 29.2%
viability, T/C [14]: 29.9%
viability, T/C [15]: 33.2%
viability, T/C [16]: 32.6%
viability, T/C [17]: 49.6%
viability, T/C [18]: 9.41%
viability, T/C [19]: 18.9%
viability, T/C [20]: 20.1%
viability, T/C [21]: 20.8%
viability, T/C [22]: 24.8%
viability, T/C [23]: 28.9%
viability, T/C [24]: 6.82%
viability, T/C [25]: 10.6%
viability, T/C [26]: 13.1%
viability, T/C [27]: 13.9%
viability, T/C [28]: 16.2%
viability, T/C [29]: 21.5%
viability, T/C [30]: 7%
viability, T/C [31]: 10.8%
viability, T/C [32]: 11.3%
viability, T/C [33]: 11.2%
viability, T/C [34]: 13.9%
viability, T/C [35]: 19.1%
viability, T/C [36]: 6.07%

IC50 (second compound 0.000949 µM): < 31.6 nM
IC50 (second compound 0.003 µM): 31.6 nM
IC50 (second compound 0.00949 µM): < 31.6 nM
IC50 (second compound 0.03 µM): < 31.6 nM
IC50 (second compound 0.0949 µM): < 31.6 nM
IC50 (second compound 0.3 µM): < 31.6 nM
SMILES: CCC(CC)c1cc(NC2CCC(N)C2)n2nccc2n1 (centres undefined) + CCn1c(-c2cc(N3CCN(C)CC3)cnc2C(C)OC)c2c3cc(ccc31)-c1csc(n1)CC(NC(=O)C1CC1C)C(=O)N1CCCC(N1)C(=O)OCC(C)(C)C2
viability, T/C [1]: 39%
viability, T/C [2]: 50.8%
viability, T/C [3]: 56%
viability, T/C [4]: 48.2%
viability, T/C [5]: 11.8%
viability, T/C [6]: 10.7%
viability, T/C [7]: 47.5%
viability, T/C [8]: 44.3%
viability, T/C [9]: 50.6%
viability, T/C [10]: 43%
viability, T/C [11]: 6.49%
viability, T/C [12]: 10.2%
viability, T/C [13]: 34.5%
viability, T/C [14]: 32.3%
viability, T/C [15]: 43.7%
viability, T/C [16]: 44.4%
viability, T/C [17]: 9.61%
viability, T/C [18]: 8.45%
viability, T/C [19]: 23.9%
viability, T/C [20]: 23.9%
viability, T/C [21]: 24.4%
viability, T/C [22]: 21.2%
viability, T/C [23]: 7.51%
viability, T/C [24]: 7.75%
viability, T/C [25]: 12.3%
viability, T/C [26]: 11.3%
viability, T/C [27]: 17.4%
viability, T/C [28]: 12.1%
viability, T/C [29]: 9.07%
viability, T/C [30]: 8.98%
viability, T/C [31]: 10.9%
viability, T/C [32]: 10.8%
viability, T/C [33]: 11.7%
viability, T/C [34]: 12.6%
viability, T/C [35]: 10.9%
viability, T/C [36]: 8.49%
